Values joined by “and” are separate entries in the source; they are usually repeats but may differ in a detail not shown here. Equal values may be shown once.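 Where inhibition never reached the appropriate level, the endpoint shown equals the highest concentration tested. Otherwise, values were interpolated linearly from a five-concentration, 48-hour dose response in 96-well plates. At the GI50, growth is halved. At the TGI there is no net growth.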
How the values were obtained:
Assay in all cases: inhibition of tumour cell growth, NCI panel, 48 h
[1] = tested on: HL-60(TB) leukemia
[2] = tested on: HCT-15 colon
[3] = tested on: TK-10 renal
[4] = tested on: HCT-116 colon
[5] = tested on: 786-0 renal
[6] = tested on: IGROV1 ovarian
[7] = tested on: SF-295 CNS
[8] = tested on: K-562 leukemia
[9] = tested on: OVCAR-4 ovarian
[10] = tested on: OVCAR-5 ovarian
[11] = tested on: T-47D breast
[12] = tested on: CCRF-CEM leukemia
[13] = tested on: MALME-3M melanoma

SMILES | TGI [1] | TGI [2] | TGI [3] | TGI [4] | TGI [5] | TGI [6] | TGI [7] | TGI [8] | TGI [9] | TGI [10] | TGI [11] [µM] | TGI [12] | TGI [13] | GI50 [1] | GI50 [12] | GI50 [8]
COc1cc2c(cc1OC)CC(N=[N+]=[N-])c1cc(OC)c(OC)cc1/C=C\2 (stereo unspecified) | > 100 µM | > 100 µM | > 100 µM | > 100 µM | > 100 µM | > 100 µM | > 100 µM | > 100 µM | > 100 µM | > 100 µM | > 100 |  |  |  |  | 
Cc1cc2c(c(C=NCc3ccccc3)c1)OC1(C=C2)Oc2ccccc2C(=O)N1C (stereo unspecified) | 60.2 µM | 45.4 µM | 79.7 µM | 61.6 µM | > 100 µM | 68.1 µM | > 100 µM | > 100 µM | 69.9 µM | 56 µM | 45.9 | 36.3 µM |  |  |  | 
CC(C)C1OC(=O)/C=C/C=C/C=C/C=C/C=C/CC(O)CC(O)CC(O)CC(O)CC(O)CC(O)CC(O)CC(O)/C=C/C1C (stereo unspecified) | > 100 µM | > 100 µM | > 100 µM | > 100 µM | > 100 µM | > 100 µM | > 100 µM | > 100 µM | > 100 µM | > 100 µM |  | > 100 µM | > 100 µM |  |  | 
CC(C)=CCC/C(C)=C/CC/C(C)=C/CC/C(C)=C/CC/C(C)=C\CC/C(C)=C/CC/C(C)=C/CC/C(C)=C/Cc1cc(O)ccc1O |  | > 33.4 µM | > 29.4 µM | 1.87 µM | 4.09 µM | 1.47 µM | 3.76 µM | 26.4 µM | 7.4 µM | 36.4 µM | 50.1 | > 34.9 µM |  |  |  | 
COC(=O)c1csc(-c2nc(CCNC(=O)OC(C)(C)C)sc2Br)n1 | > 100 µM | > 100 µM | > 100 µM | > 100 µM | > 100 µM | > 100 µM | > 100 µM | > 100 µM |  | > 100 µM |  | > 100 µM | > 100 µM |  |  | 
COc1ccc(C2S/C(=C\c3ccc(O)cc3)C(=O)N2NC(=O)Cc2ccccc2)cc1 (stereo unspecified) | > 100 µM | > 100 µM | > 100 µM | > 100 µM | > 100 µM | > 100 µM | > 100 µM | > 100 µM | > 100 µM | > 100 µM |  | > 100 µM | > 100 µM |  |  | 
COCc1cc2c(cc1/C=C/[N+](=O)[O-])OCO2 | 85.6 µM | 36.8 µM | 30.8 µM | 34 µM | 33.5 µM | 51.1 µM | 36.3 µM | > 100 µM |  | 30.6 µM | 41.8 | 37.7 µM |  |  |  | 
CC(C)=CCSC1CC2C(CC1(C)O)C2(C)C (stereo unspecified) | > 100 µM and 19.7 µM | 31.4 µM and 29.6 µM | 32.3 µM and 30.8 µM | 33.5 µM and 28.7 µM | 29.6 µM and 25.8 µM | 31.3 µM and 33 µM | 55.9 µM and 35.2 µM | 80.1 µM and 29.6 µM | 35 µM and 29.2 µM | 28.2 µM and 30.1 µM |  | > 100 µM and 38.7 µM | 31.2 µM and 30.4 µM | 34.1 µM and 3.82 µM | 26 µM and 12.8 µM | 28.2 µM and 10.1 µM
C[C@H](O)C1CC(Cn2nnc3c(N)ncnc32)C1(C)C (stereo partly specified) |  | > 100 µM | > 100 µM | > 100 µM | > 100 µM |  | > 100 µM | 0.0411 µM | > 100 µM | > 100 µM | > 100 | > 100 µM |  |  |  | 
COc1ccc2c3c1OC1c4[nH]c5ccccc5c4CC4(O)C(C2)N(C)CCC314 (stereo unspecified) |  | > 100 µM | 50.2 µM | > 100 µM | 34.3 µM | > 100 µM | > 100 µM | 37.2 µM | > 100 µM | > 100 µM | 43.6 | 52.8 µM |  |  |  | 
N#CC1(C#N)NC(c2ccsc2)C(C#N)(C#N)NC1c1ccsc1 (stereo unspecified) | > 100 µM | > 100 µM | > 100 µM | > 100 µM | > 100 µM | > 100 µM | > 100 µM | > 100 µM | > 100 µM | > 100 µM |  | > 100 µM | > 100 µM |  |  | 
O=c1[nH]nc(Cc2ccccc2)n1Nc1ccccc1 | > 100 µM | > 100 µM | > 100 µM | > 100 µM | > 100 µM | > 100 µM | > 100 µM | > 100 µM | > 100 µM | > 100 µM |  | > 100 µM | > 100 µM |  |  | 
COc1ccc(CC2NC(=O)/C=C/CC(C(C)C3OC3c3ccccc3)OC(=O)C(CC(C)C)OC(=O)C(C)CNC2=O)cc1Cl (stereo unspecified) |  | > 0.1 µM | > 0.1 µM | > 0.1 µM | > 0.1 µM |  |  | > 0.0416 µM | > 0.1 µM | > 0.1 µM |  |  | > 0.1 µM |  |  | 
C=CC[C@H]1[C@H](O[Si](C)(C)C(C)(C)C)C=CC(=O)[C@@H]1CC(=O)N(Cc1ccccc1)Cc1ccccc1 | 36.5 µM | 35.6 µM | 85.6 µM | 54.5 µM | 84.9 µM | > 100 µM | > 100 µM | > 100 µM | > 100 µM | > 100 µM | 44.2 | > 100 µM |  |  |  | 
CC(=O)Nc1ccc2c3c(cc(O)c2c1)N(C(=O)CCCCC(=O)Nc1ccc2c4c(cc(O)c2c1)N(C(=O)OC(C)(C)C)CC4CCl)CC3CCl (stereo unspecified) | 12.4 µM | 48.2 µM | > 65.5 µM | > 33.2 µM | 9.36 µM | > 32.8 µM | > 56.8 µM | > 100 µM | > 24.3 µM | 10.6 µM |  | 4.53 µM | 3.52 µM |  |  | 
CCOC(=O)C(NC(=O)Nc1ccc(Cl)c(Cl)c1)C(F)(F)F (stereo unspecified) | > 100 µM | > 100 µM | > 100 µM | > 100 µM | > 100 µM | > 100 µM |  | > 100 µM |  | > 100 µM | > 100 | > 100 µM |  |  |  | 
COc1ccc(C(C#N)NNc2nc(C)cc(=O)[nH]2)cc1OC (stereo unspecified) | > 100 µM | > 100 µM | > 100 µM | > 100 µM | > 100 µM | > 100 µM | > 100 µM | > 100 µM | > 100 µM | > 100 µM |  | > 100 µM | > 100 µM |  |  | 
COC(=O)C1C2C=CC(C2)N1[C@@H](C)c1ccccc1 (stereo partly specified) | > 100 µM | > 100 µM | > 100 µM | > 100 µM | > 100 µM | > 100 µM | > 100 µM | > 100 µM |  | > 100 µM |  | > 100 µM | > 100 µM |  |  | 
Cc1c(NC(=S)Nc2ccc(Cl)cc2)c(=O)n(-c2ccccc2)n1C | > 100 µM | > 100 µM | > 100 µM | > 100 µM | > 100 µM | > 100 µM | > 100 µM | > 100 µM |  | > 100 µM |  | > 100 µM | > 100 µM |  |  | 
CCOc1cc(NC(C)=O)ccc1C(=O)NN1C(=O)/C(=C/c2cc(OC)c(OC)c(OC)c2)N=C1c1ccccc1 | > 100 µM | > 100 µM |  | > 100 µM | > 100 µM | > 100 µM | > 100 µM | > 100 µM | > 100 µM | > 100 µM |  | > 100 µM | > 100 µM |  |  | 
CCC(=O)O[C@H]1CC[C@H]2[C@@H]3CCC4=C/C(=N/NC(=O)c5cccc6c(=O)c7ccccc7[nH]c56)CC[C@]4(C)[C@H]3CC[C@]12C |  | > 25 µM | > 25 µM |  | 10.3 µM | > 25 µM | > 25 µM | > 25 µM | > 25 µM | > 25 µM | > 25 | > 25 µM |  |  |  | 
CC(=O)OC1c2ccccc2CCCCCCC12OCCO2 (stereo unspecified) | > 100 µM | > 100 µM | > 100 µM | > 100 µM | > 100 µM | > 100 µM | > 100 µM | > 100 µM | > 100 µM | > 100 µM |  | > 100 µM | > 100 µM |  |  | 
CC[C@@H](/C=C\CCC1(C[C@H](O)CCC=C(C)C)OCCO1)O[Si](C(C)C)(C(C)C)C(C)C | 38.4 µM | 42.8 µM | 39.3 µM | 38.6 µM | 31.4 µM | 42.1 µM | 43.1 µM | 60 µM | > 100 µM | 38.5 µM | 42.6 | > 100 µM |  |  |  | 
CC1(C)CC(=O)c2c(nc3ccc4ccccc4c3c2-c2ccc(NC(=O)CCC(=O)Nc3ccc(-c4c5c(nc6ccc7ccccc7c46)CC(C)(C)CC5=O)cc3)cc2)C1 | > 100 µM |  | > 100 µM | > 100 µM | > 100 µM | > 100 µM | > 100 µM | > 100 µM |  | > 100 µM | > 100 | > 100 µM |  |  |  | 
CC(=O)NC1=C(C)C(=O)c2c(nc3n2CCC3O)C1=N (stereo unspecified) | > 100 µM | 41.1 µM | 85.4 µM | 6.88 µM | 40.4 µM | 39.3 µM | 38 µM | > 100 µM | 14.6 µM | 36.6 µM |  | > 100 µM | 18.8 µM |  |  | 
CNC1=CC(=O)C2=C(C1=O)[C@H]1CC[C@]3(C)C(=O)CC[C@H]3[C@@H]1CC2 |  | 27.5 µM | > 100 µM | 35.7 µM | 38.3 µM | 16.1 µM | 29.1 µM | > 57.5 µM | 37.4 µM | 51 µM | 57.9 | 30.4 µM |  |  |  | 
NC(=O)N1N=C2c3ccccc3SC[C@H]2[C@@H]1c1ccccc1 | 55 µM | > 100 µM | 92.6 µM | 28.2 µM | > 100 µM | 68.4 µM | 80.4 µM | > 100 µM | 73.4 µM | 60.2 µM |  | 70.7 µM | > 100 µM |  |  | 

From PubChem BioAssay (NCI)
